Assay results: patent US10894784B2, “Heteroarylbenzimidazole compounds” (BAYER PHARMA AKTIENGESELLSCHAFT, priority 2015, dated 2021)

Molecular target: TBK1 (Homo sapiens (Human), UniProt Q9UHD2)
Experiment: TBK1 low ATP kinase assay (in vitro assay 1)
Type: biochemical
Details: in vitro assay 1, read-out: TBK1 low ATP kinase assay IC50

Chain of TBK1 (Q9UHD2 whole entry): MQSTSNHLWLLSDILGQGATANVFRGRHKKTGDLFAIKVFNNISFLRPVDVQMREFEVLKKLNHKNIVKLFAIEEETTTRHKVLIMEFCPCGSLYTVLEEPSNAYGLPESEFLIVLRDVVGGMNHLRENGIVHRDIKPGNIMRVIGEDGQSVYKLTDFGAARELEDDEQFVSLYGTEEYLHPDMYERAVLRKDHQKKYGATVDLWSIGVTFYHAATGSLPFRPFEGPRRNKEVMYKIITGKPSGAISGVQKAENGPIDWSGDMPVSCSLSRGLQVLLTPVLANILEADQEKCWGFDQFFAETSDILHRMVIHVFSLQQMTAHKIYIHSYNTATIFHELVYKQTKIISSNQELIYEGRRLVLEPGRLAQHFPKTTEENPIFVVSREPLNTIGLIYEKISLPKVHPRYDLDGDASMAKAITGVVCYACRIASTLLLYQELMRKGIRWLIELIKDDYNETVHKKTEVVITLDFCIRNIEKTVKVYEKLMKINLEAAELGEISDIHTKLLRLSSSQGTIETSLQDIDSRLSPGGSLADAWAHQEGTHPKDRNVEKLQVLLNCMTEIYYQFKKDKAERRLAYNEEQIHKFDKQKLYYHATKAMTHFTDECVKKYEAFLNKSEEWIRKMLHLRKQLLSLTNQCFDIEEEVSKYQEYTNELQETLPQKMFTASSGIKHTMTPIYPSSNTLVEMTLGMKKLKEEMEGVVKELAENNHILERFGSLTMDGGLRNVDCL

| IC50 [nM] | Structure (SMILES) |
| --- | --- |
| 19 | CN(c1cc(-c2ccc3nc(Nc4cc(CN5CCN(C(=O)C6CC6)CC5)ccn4)[nH]c3c2)ncn1)C1CCC1 [Example 156.03, [4-({2-[(6-{6-[cyclobutyl(methyl)amino]pyrimidin-4-yl}-1H-benzimidazol-2-yl)amino]pyridin-4-yl}methyl)piperazin-1-yl](cyclopropyl)methanone] |
| 22 | CC(C)(O)c1cc(-c2ccc3nc(Nc4cc(CN5CCN(C(=O)CC(F)(F)F)CC5)ccn4)[nH]c3c2)ncn1 [Example 96.02, 3,3,3-trifluoro-1-(4-{[2-({6-[6-(2-hydroxypropan-2-yl)pyrimidin-4-yl]-1H-benzimidazol-2-yl}amino)pyridin-4-yl]methyl}piperazin-1-yl)propan-1-one] |
| 1.8 | O=C(CC(F)(F)F)N1CCN(Cc2ccnc(Nc3nc4ccc(-c5cc(N6CCC6)ncn5)cc4[nH]3)c2)CC1 [Example 147.02, 1-(4-{[2-({6-[6-(azetidin-1-yl)pyrimidin-4-yl]-1H-benzimidazol-2-yl}amino)pyridin-4-yl]methyl}piperazin-1-yl)-3,3,3-trifluoropropan-1-one] |
| 22 | CC(C)c1cc(-c2ccc3nc(Nc4cc(CN5CCN(C(=O)CC(F)(F)F)CC5)ccn4)[nH]c3c2)ncn1 [Example 78.01, 3,3,3-trifluoro-1-(4-{[2-({6-[6-(propan-2-yl)pyrimidin-4-yl]-1H-benzimidazol-2-yl}amino)pyridin-4-yl]methyl}piperazin-1-yl)propan-1-one] |
| 8 | COc1c(NCC2CC2)ncnc1-c1ccc2nc(Nc3cc(C(C)N4CCN(C(=O)OC(C)(C)C)CC4)ccn3)[nH]c2c1 (single isomer, unassigned) [Example 109.02.01, tert-butyl 4-[(1R or 1S)-1-{2-[(6-{6-[(cyclopropylmethyl)amino]-5-methoxypyrimidin-4-yl}-1H-benzimidazol-2-yl)amino]pyridin-4-yl}ethyl]piperazine-1-carboxylate] |
| 45.4 | Cc1nccc(-c2ccc3nc(Nc4cc(C(C)N5CCN(C(=O)CC(F)(F)F)CC5)ccn4)[nH]c3c2)n1 (single isomer, unassigned) [Example 24.05.01.A, 3,3,3-trifluoro-1-{4-[(1R or 1S)-1-(2-{[6-(2-methylpyrimidin-4-yl)-1H-benzimidazol-2-yl]amino}pyridin-4-yl)ethyl]piperazin-1-yl}propan-1-one] |
| 0.86 | CC(c1ccnc(Nc2nc3ccc(-c4cc(N5CCCC5)ncn4)cc3[nH]2)c1)N1CCN(C(=O)C2(C)CC2(F)F)CC1 (single isomer, unassigned) [Example 117.06, [(1RS)-2,2-difluoro-1-methylcyclopropyl](4-{(1R or S)-1-[2-({6-[6-(pyrrolidin-1-yl)pyrimidin-4-yl]-1H-benzimidazol-2-yl}amino)pyridin-4-yl]ethyl}piperazin-1-yl)methanone] |
| 6.5 | CCN(C)c1cc(-c2ccc3nc(Nc4cc(CN5CCN(C(=O)CC(F)(F)F)CC5)ccn4)[nH]c3c2)ncn1 [Example 148.02, 1-[4({2-[(6-{6-[ethyl(methyl)amino]pyrimidin-4-yl}-1H-benzimidazol-2-yl)amino]pyridin-4-yl}methyl)piperazin-1-yl]-3,3,3-trifluoropropan-1-one] |
| 3790 | Cc1ncc(-c2ccc3nc(Nc4cc(CN5CCN(C(=O)CC(F)(F)F)CC5)ccn4)[nH]c3c2)cn1 [Example 45.03.01, 3,3,3-trifluoro-1-{4-[(2-{[6-(2-methylpyrimidin-5-yl)-1H-benzimidazol-2-yl]amino}pyridin-4-yl)methyl]piperazin-1-yl}propan-1-one] |
| 1170 | Cc1ncnc(-c2ccc3nc(Nc4cc(CN5CCN(C(=O)CC(F)(F)F)CC5)ccn4)[nH]c3c2)c1C [Example 32.02, 1-{4-[(2-{[6-(5,6-dimethylpyrimidin-4-yl)-1H-benzimidazol-2-yl]amino}pyridin-4-yl)methyl]piperazin-1-yl}-3,3,3-trifluoropropan-1-one] |
| 576 | CC(C)(C)OC(=O)N1CCN(Cc2ccnc(Nc3nc4ccc(-c5ncccn5)cc4[nH]3)c2)CC1 [Example 180.01, tert-butyl 4-[(2-{[6-(pyrimidin-2-yl)-1H-benzimidazol-2-yl]amino}pyridin-4-yl)methyl]piperazine-1-carboxylate] |
| 0.62 | CC(c1ccnc(Nc2nc3ccc(-c4cc(N5CCC5)ncn4)cc3[nH]2)c1)N1CCN(C(=O)C2CC2)CC1 (single isomer, unassigned) [Example 115.03, (4-{(1R or 1S)-1-[2-({6-[6-(azetidin-1-yl)pyrimidin-4-yl]-1H-benzimidazol-2-yl}amino)pyridin-4-yl]ethyl}piperazin-1-yl)(cyclopropyl)methanone] |
| 1.2 | CC(c1ccnc(Nc2nc3ccc(-c4cnn(CC5CC5)c4)c(Cl)c3[nH]2)c1)N1CCN(C(=O)CC(F)(F)F)CC1 (single isomer, unassigned) [Example 122.02, 1-(4-{(1R or 1S)-1-[2-({7-chloro-6-[1-(cyclopropylmethyl)-1H-pyrazol-4-yl]-1H-benzimidazol-2-yl}amino)pyridin-4-yl]ethyl}piperazin-1-yl)-3,3,3-trifluoropropan-1-one] |
| 7.86 | Cc1cc(-c2ccc3nc(Nc4cc(C(C)N5CCN(C(=O)C6CCC6)CC5)ccn4)[nH]c3c2)ncn1 (racemic) [Example 30.02.02, (rac)-cyclobutyl{4-[1-(2-{[6-(6-methylpyrimidin-4-yl)-1H-benzimidazol-2-yl]amino}pyridin-4-yl)ethyl]piperazin-1-yl}methanone] |
| 201 | Cc1cncnc1-c1ccc2nc(Nc3cc(CN4CCN(C(=O)CC(F)(F)F)CC4)ccn3)[nH]c2c1 [Example 184.02, 3,3,3-trifluoro-1-{4-[(2-{[6-(5-methylpyrimidin-4-yl)-1H-benzimidazol-2-yl]amino}pyridin-4-yl)methyl]piperazin-1-yl}propan-1-one] |
| 110 | COc1c(Cl)ncnc1-c1ccc2nc(Nc3cc(CN4CCN(C(=O)OC(C)(C)C)CC4)ccn3)[nH]c2c1 [Compound 60.01, tert-butyl 4-[(2-{[6-(6-chloro-5-methoxypyrimidin-4-yl)-1H-benzimidazol-2-yl]amino}pyridin-4-yl)methyl]piperazine-1-carboxylate] |
| 924 | Cc1cccc(-c2ccc3nc(Nc4cc(CN5CCN(C(=O)C6CC6)CC5)ccn4)[nH]c3c2)n1 [Example 12.02, cyclopropyl{4-[(2-{[6-(6-methylpyridin-2-yl)-1H-benzimidazol-2-yl]amino}pyridin-4-yl)methyl]piperazin-1-yl}methanone] |
| 1.79 | CC(c1ccnc(Nc2nc3ccc(-c4cc(OCC(C)(F)F)ncn4)cc3[nH]2)c1)N1CCN(C(=O)C2CC2)CC1 (single isomer, unassigned) [Example 165.03, cyclopropyl(4-{(1R or 1S)-1-[2-({6-[6-(2,2-difluoropropoxy)pyrimidin-4-yl]-1H-benzimidazol-2-yl}amino)pyridin-4-yl]ethyl}piperazin-1-yl)methanone] |
| 36.8 | COc1cc(-c2ccc3nc(Nc4cc(CN5CCN(C(=O)CC(F)(F)F)CC5)ccn4)[nH]c3c2)ccn1 [Example 02.03, 3,3,3-trifluoro-1-{4-[(2-{[6-(2-methoxypyridin-4-yl)-1H-benzimidazol-2-yl]amino}pyridin-4-yl)methyl]piperazin-1-yl}propan-1-one] |
| 5.93 | CC(c1ccnc(Nc2nc3ccc(-c4cc(OCC(F)(F)F)ncn4)cc3[nH]2)c1)N1CCN(C(=O)C2CC2)CC1 (single isomer, unassigned) [Example 119.03, cyclopropyl(4-{(1R or 1S)-1-[2-({6-[6-(2,2,2-trifluoroethoxy)pyrimidin-4-yl]-1H-benzimidazol-2-yl}amino)pyridin-4-yl]ethyl}piperazin-1-yl)methanone] |
| 0.64 | CC(c1ccnc(Nc2nc3ccc(-c4cnn(CC5(Cl)CC5)c4)cc3[nH]2)c1)N1CCN(C(=O)CC(F)(F)F)CC1 (single isomer, unassigned) [Example 69.02, 1-{4-[(1R or 1S)-1-{2-[(6-{1-[(1-chlorocyclopropyl)methyl]-1H-pyrazol-4-yl}-1H-benzimidazol-2-yl)amino]pyridin-4-yl}ethyl]piperazin-1-yl}-3,3,3-trifluoropropan-1-one] |
| 61 | COc1c(NC2CCC2)ncnc1-c1ccc2nc(Nc3cc(C(C)N4CCN(C(=O)OC(C)(C)C)CC4)ccn3)[nH]c2c1 (single isomer, unassigned) [Example 114.01, tert-butyl 4-{(1R or 1S)-1-[2-({6-[6-(cyclobutylamino)-5-methoxypyrimidin-4-yl]-1H-benzimidazol-2-yl}amino)pyridin-4-yl]ethyl}piperazine-1-carboxylate] |
| 1420 | CN(C)c1nccnc1-c1ccc2nc(Nc3cc(CN4CCN(C(=O)C5CC5)CC4)ccn3)[nH]c2c1 [Example 196.03, cyclopropyl(4-{[2-({6-[3-(dimethylamino)pyrazin-2-yl]-1H-benzimidazol-2-yl}amino)pyridin-4-yl]methyl}piperazin-1-yl)methanone] |
| > 20000 | Cc1noc(-c2ccc3nc(Nc4cc(CN5CCN(c6ccc(F)cc6F)CC5)ccn4)[nH]c3c2)n1 [Example 101.11, N-(4-{[4-(2,4-difluorophenyl)piperazin-1-yl]methyl}pyridin-2-yl)-6-(3-methyl-1,2,4-oxadiazol-5-yl)-1H-benzimidazol-2-amine] |
| 64.7 | CCn1cc(-c2ccc3nc(Nc4cc(CN5CCN(C(=O)CC(F)(F)F)CC5)ccn4)[nH]c3c2OCC(C)C)cn1 [Example 52.01, 1-{4-[(2-{[6-(1-ethyl-1H-pyrazol-4-yl)-7-(2-methylpropoxy)-1H-benzimidazol-2-yl]amino}pyridin-4-yl)methyl]piperazin-1-yl}-3,3,3-trifluoropropan-1-one] |
| 8.07 | COc1c(NC2CCC2)ncnc1-c1ccc2nc(Nc3cc(C(C)N4CCN(C(=O)C5CC5)CC4)ccn3)[nH]c2c1 (single isomer, unassigned) [Example 114.03, (4-{(1R or 1S)-1-[2-({6-[6-(cyclobutylamino)-5-methoxypyrimidin-4-yl]-1H-benzimidazol-2-yl}amino)pyridin-4-yl]ethyl}piperazin-1-yl)(cyclopropyl)methanone] |
